# Measured values from patent US20070265208A1, “Association of calpain inhibitors and reactive oxygen species trapping agents” (priority 2000, published 2007).
# System: human neuroblastomas SHSY5Y
# Assay: Protection from necrosis induced by maitotoxin, SHSY5Y (wst-1 viability)
# Format: cell-based
# Details: for Protection from necrosis induced by MTX: SHSY5Y, n=2, 0.1 nM maitotoxin; for Protection from necrosis induced by MTX on SHSY5Y: n = 8, single product at 100 μM
# Protocol: Human neuroblastomas SHSY5Y and rat glial cells C6 are seeded at 25 000 cells per well in 96-well plates in DMEM 10% FBS for 24 hours. The L6 rat myoblasts are seeded at 1000 cells per well in DMEM 10% FBS on 96-well microplates coated beforehand with gelatin 0.5% PBS. After culture for 3 days the medium is removed and replaced with a differentiation medium (DMEM+10 μg/ml of insulin+100 μg/ml of transferrin). 50 μl of product A plus 50 μl of solvent or 50 μl of product B are placed in the wells. After incubation for 1 hour at 37° C. under an atmosphere of 5% CO2, 10 μl of maitotoxin is added in order to obtain a final concentration of 0.1 nM to 1 nM (according to the cell type). After incubation for 3 hours at 37° C. under an atmosphere of 5% CO2, the cell viability is determined by adding 10 μl of tetrazolium salts (wst-1, Roche, ref: 1644807). The tetrazolium salts are cleaved into formazan molecules by mitochondrial dehydrogenases. The quantity of formazan formed is directly correlated to the number of metabolically active cells in the culture. Measurement of the absorbance of the formazan is carried out using a multiwell photometer at a wavelength of 420 nm against a reference wavelength of 620 nm.
# The theoretical effect was obtained by multiplying the percentage of dead cells in the presence of product A by the percentage of dead cells in the presence of product B (Table 3). The percentage protection against cell death induced by MTX being the percentage of cells kept alive in the presence of the product or products.
# In a first series of experiments, the concentration of product A in Example 1 is fixed (100 μM), product B is added at concentrations varying from zero to 100 μM (Table 4A). In a second series of experiments, product B of Example 1 is fixed at 100 μM, product A is added at concentrations varying from zero to 100 μM (Table 4B).
smiles,measurement,setting,value
"CC(C)C[C@@H](C=O)NC(=O)[C@H](CC(C)C)NC(=O)OCc1ccccc1 [EXAMPLE 1 B, benzyl (1S)-1-({[(1S)-1-formyl-3-methylbutyl]amino}carbonyl)-3-methylbutylcarbamate]",Protection from necrosis induced by MTX,single compound at 12.5 μM,6.89 ± 1.51%
same,Protection from necrosis induced by MTX,single compound at 25 μM,6.94 ± 0.2%
same,Protection from necrosis induced by MTX,single compound at 50 μM,9.01 ± 0.83%
same,Protection from necrosis induced by MTX,single compound at 100 μM,17.52 ± 2.69%
same,Protection from necrosis induced by MTX on SHSY5Y,,12.87 ± 3.72%
same,Protection from necrosis induced by MTX on SHSY5Y,listed as Z-Leu-Leu-H,not active
